Laboratory results published in patent US20230002357A1, “7-PYRIMIDINE-2-YL-OXY-INDAZOLE DERIVATIVES AND THEIR USE AS HERBICIDES” (SYNGENTA CROP PROTECTION AG, priority 2019, published 2023).

Key:
Assay type in all cases: in vivo
Settings in all cases: 250 g/ha, evaluated after 13 days
[1] = tested on: Amaranthus retoflexus (AMARE); assay: Post-emergence Test, glasshouse, AMARE
Description: (§1) Seeds of a variety of test species are sown in standard soil in pots Amaranthus retoflexus (AMARE), Echinochloa crus-galli (ECHCG), Setaria faberi (SETFA)). After cultivation for one day (pre-emergence) or after 8 days cultivation (post-emergence) under controlled conditions in a glasshouse (at 24/16° C., day/night; 14 hours light; 65% humidity), the plants are sprayed with an aqueous spray solution derived from the formulation of the technical active ingredient in acetone/water (50:50) solution containing 0.5% Tween™ 20 (polyoxyethelyene sorbitan monolaurate, CAS RN 9005-64-5). Compounds are applied at 250 g/ha unless otherwise stated. The test plants are then grown in a glasshouse under controlled conditions in a glasshouse (at 24/16° C., day/night; 14 hours light; 65% humidity) and watered twice daily. After 13 days for pre- and post-emergence, the test is evaluated for the percentage damage caused to the plant. The biological activities are shown in the following table on a five-point scale (5=81-100%; 4=61-80%; 3=41-60%; 2=21-40%; 1=0-20%).

ABUTH [2] = assay: Post-emergence Test, glasshouse, ABUTH
Description: as §1

Setaria faberi (SETFA) [3] = assay: Post-emergence Test, glasshouse, SETFA
Description: as §1

[4] = tested on: Echinochloa crus-galli (ECHCG); assay: Post-emergence Test, glasshouse, ECHCG
Description: as §1

IPOHE [5] = assay: Post-emergence Test, glasshouse, IPOHE
Description: as §1

[6] = tested on: Amaranthus retoflexus (AMARE); assay: Pre-emergence Test, glasshouse, AMARE
Description: as §1

ABUTH [7] = assay: Pre-emergence Test, glasshouse, ABUTH
Description: as §1

Setaria faberi (SETFA) [8] = assay: Pre-emergence Test, glasshouse, SETFA
Description: as §1

[9] = tested on: Echinochloa crus-galli (ECHCG); assay: Pre-emergence Test, glasshouse, ECHCG
Description: as §1

IPOHE [10] = assay: Pre-emergence Test, glasshouse, IPOHE
Description: as §1

N#Cc1ccc2c(Cl)nn(CCCC(F)(F)F)c2c1Oc1ncc(Cl)cn1 [Compound 1.041, 3-chloro-7-(5-chloropyrimidin-2-yl)oxy-1-(4,4,4-trifluorobutyl)indazole-6-carbonitrile]
1 (1=0-20%): percentage damage caused to the plant, five-point scale, AMARE [1] | percentage damage caused to the plant, five-point scale, ABUTH (ABUTH [2]) | percentage damage caused to the plant, five-point scale, SETFA (Setaria faberi (SETFA) [3]) | percentage damage caused to the plant, five-point scale, ECHCG [4] | percentage damage caused to the plant, five-point scale, IPOHE (IPOHE [5]) | percentage damage caused to the plant, five-point scale, AMARE [6] | percentage damage caused to the plant, five-point scale, ABUTH (ABUTH [7]) | percentage damage caused to the plant, five-point scale, SETFA (Setaria faberi (SETFA) [8]) | percentage damage caused to the plant, five-point scale, ECHCG [9] | percentage damage caused to the plant, five-point scale, IPOHE (IPOHE [10])

COc1cc(Oc2cccc3cnn(CCCC(F)(F)F)c23)ncn1 [Compound 1.012]
2 (2=21-40%): percentage damage caused to the plant, five-point scale, AMARE [6]
1 (1=0-20%): percentage damage caused to the plant, five-point scale, AMARE [1] | percentage damage caused to the plant, five-point scale, ABUTH (ABUTH [2]) | percentage damage caused to the plant, five-point scale, SETFA (Setaria faberi (SETFA) [3]) | percentage damage caused to the plant, five-point scale, ECHCG [4] | percentage damage caused to the plant, five-point scale, IPOHE (IPOHE [5]) | percentage damage caused to the plant, five-point scale, ABUTH (ABUTH [7]) | percentage damage caused to the plant, five-point scale, SETFA (Setaria faberi (SETFA) [8]) | percentage damage caused to the plant, five-point scale, ECHCG [9] | percentage damage caused to the plant, five-point scale, IPOHE (IPOHE [10])

Fc1cc(Cl)cnc1Oc1cccc2ccn(CCCC(F)(F)F)c12 [Compound 1.004]
1 (1=0-20%): percentage damage caused to the plant, five-point scale, ABUTH (ABUTH [2]) | percentage damage caused to the plant, five-point scale, SETFA (Setaria faberi (SETFA) [3]) | percentage damage caused to the plant, five-point scale, ECHCG [4] | percentage damage caused to the plant, five-point scale, AMARE [6] | percentage damage caused to the plant, five-point scale, ABUTH (ABUTH [7]) | percentage damage caused to the plant, five-point scale, ECHCG [9] | percentage damage caused to the plant, five-point scale, IPOHE (IPOHE [10])
3 (3=41-60%): percentage damage caused to the plant, five-point scale, AMARE [1]
2 (2=21-40%): percentage damage caused to the plant, five-point scale, IPOHE (IPOHE [5]) | percentage damage caused to the plant, five-point scale, SETFA (Setaria faberi (SETFA) [8])

N#Cc1cc(Cl)cnc1Oc1cccc2cnn(CCCC(F)(F)F)c12 [Compound 1.014]
1 (1=0-20%): percentage damage caused to the plant, five-point scale, ABUTH (ABUTH [7]) | percentage damage caused to the plant, five-point scale, IPOHE (IPOHE [10])
2 (2=21-40%): percentage damage caused to the plant, five-point scale, ECHCG [4] | percentage damage caused to the plant, five-point scale, IPOHE (IPOHE [5])
4 (4=61-80%): percentage damage caused to the plant, five-point scale, AMARE [1] | percentage damage caused to the plant, five-point scale, ABUTH (ABUTH [2]) | percentage damage caused to the plant, five-point scale, AMARE [6] | percentage damage caused to the plant, five-point scale, SETFA (Setaria faberi (SETFA) [8]) | percentage damage caused to the plant, five-point scale, ECHCG [9]
3 (3=41-60%): percentage damage caused to the plant, five-point scale, SETFA (Setaria faberi (SETFA) [3])

FC(F)(F)CCCn1nc(Cl)c2ccc(Br)c(Oc3ncc(Cl)cn3)c21 [Compound 1.037]
2 (2=21-40%): percentage damage caused to the plant, five-point scale, AMARE [1]
1 (1=0-20%): percentage damage caused to the plant, five-point scale, ABUTH (ABUTH [2]) | percentage damage caused to the plant, five-point scale, SETFA (Setaria faberi (SETFA) [3]) | percentage damage caused to the plant, five-point scale, ECHCG [4] | percentage damage caused to the plant, five-point scale, IPOHE (IPOHE [5]) | percentage damage caused to the plant, five-point scale, AMARE [6] | percentage damage caused to the plant, five-point scale, ABUTH (ABUTH [7]) | percentage damage caused to the plant, five-point scale, SETFA (Setaria faberi (SETFA) [8]) | percentage damage caused to the plant, five-point scale, ECHCG [9] | percentage damage caused to the plant, five-point scale, IPOHE (IPOHE [10])

FC(F)CCCn1nc(Cl)c2cccc(Oc3ncc(Cl)cn3)c21 [Compound 1.040]
5 (5=81-100%): percentage damage caused to the plant, five-point scale, AMARE [1] | percentage damage caused to the plant, five-point scale, ECHCG [4] | percentage damage caused to the plant, five-point scale, IPOHE (IPOHE [5]) | percentage damage caused to the plant, five-point scale, AMARE [6] | percentage damage caused to the plant, five-point scale, SETFA (Setaria faberi (SETFA) [8]) | percentage damage caused to the plant, five-point scale, ECHCG [9]
4 (4=61-80%): percentage damage caused to the plant, five-point scale, ABUTH (ABUTH [2]) | percentage damage caused to the plant, five-point scale, SETFA (Setaria faberi (SETFA) [3]) | percentage damage caused to the plant, five-point scale, ABUTH (ABUTH [7])
2 (2=21-40%): percentage damage caused to the plant, five-point scale, IPOHE (IPOHE [10])

FC(F)(F)CCn1nc(Cl)c2cccc(Oc3ncc(Cl)cn3)c21 [Compound 1.035]
3 (3=41-60%): percentage damage caused to the plant, five-point scale, ABUTH (ABUTH [7]) | percentage damage caused to the plant, five-point scale, IPOHE (IPOHE [10])
4 (4=61-80%): percentage damage caused to the plant, five-point scale, SETFA (Setaria faberi (SETFA) [3]) | percentage damage caused to the plant, five-point scale, IPOHE (IPOHE [5]) | percentage damage caused to the plant, five-point scale, AMARE [6]
5 (5=81-100%): percentage damage caused to the plant, five-point scale, AMARE [1] | percentage damage caused to the plant, five-point scale, ABUTH (ABUTH [2]) | percentage damage caused to the plant, five-point scale, ECHCG [4] | percentage damage caused to the plant, five-point scale, SETFA (Setaria faberi (SETFA) [8]) | percentage damage caused to the plant, five-point scale, ECHCG [9]

FC(F)(F)CCCn1nnc2c(Cl)ccc(Oc3ncc(Cl)cn3)c21 [Compound 1.072]
1 (1=0-20%): percentage damage caused to the plant, five-point scale, ABUTH (ABUTH [2]) | percentage damage caused to the plant, five-point scale, ABUTH (ABUTH [7]) | percentage damage caused to the plant, five-point scale, IPOHE (IPOHE [10])
4 (4=61-80%): percentage damage caused to the plant, five-point scale, AMARE [1] | percentage damage caused to the plant, five-point scale, AMARE [6] | percentage damage caused to the plant, five-point scale, SETFA (Setaria faberi (SETFA) [8])
2 (2=21-40%): percentage damage caused to the plant, five-point scale, ECHCG [9]
3 (3=41-60%): percentage damage caused to the plant, five-point scale, SETFA (Setaria faberi (SETFA) [3]) | percentage damage caused to the plant, five-point scale, ECHCG [4] | percentage damage caused to the plant, five-point scale, IPOHE (IPOHE [5])

FC(F)(F)CCCn1nc(Cl)c2cc(Br)cc(Oc3ncc(Cl)cn3)c21 [Compound 1.010, 5-bromo-3-chloro-7-(5-chloropyrimidin-2-yl)oxy-1-(4,4,4-trifluorobutyl)indazole]
1 (1=0-20%): percentage damage caused to the plant, five-point scale, ABUTH (ABUTH [2]) | percentage damage caused to the plant, five-point scale, IPOHE (IPOHE [5]) | percentage damage caused to the plant, five-point scale, ABUTH (ABUTH [7]) | percentage damage caused to the plant, five-point scale, IPOHE (IPOHE [10])
4 (4=61-80%): percentage damage caused to the plant, five-point scale, AMARE [1] | percentage damage caused to the plant, five-point scale, AMARE [6]
2 (2=21-40%): percentage damage caused to the plant, five-point scale, SETFA (Setaria faberi (SETFA) [3]) | percentage damage caused to the plant, five-point scale, ECHCG [4] | percentage damage caused to the plant, five-point scale, SETFA (Setaria faberi (SETFA) [8]) | percentage damage caused to the plant, five-point scale, ECHCG [9]

FC(F)(F)CCCn1ncc2cc(Br)cc(Oc3ncc(Cl)cn3)c21 [Compound 1.011, 5-bromo-7-(5-chloropyrimidin-2-yl)oxy-1-(4,4,4-trifluorobutyl)indazole]
1 (1=0-20%): percentage damage caused to the plant, five-point scale, ABUTH (ABUTH [2]) | percentage damage caused to the plant, five-point scale, SETFA (Setaria faberi (SETFA) [3]) | percentage damage caused to the plant, five-point scale, ECHCG [4] | percentage damage caused to the plant, five-point scale, IPOHE (IPOHE [5]) | percentage damage caused to the plant, five-point scale, AMARE [6] | percentage damage caused to the plant, five-point scale, ABUTH (ABUTH [7]) | percentage damage caused to the plant, five-point scale, SETFA (Setaria faberi (SETFA) [8]) | percentage damage caused to the plant, five-point scale, ECHCG [9] | percentage damage caused to the plant, five-point scale, IPOHE (IPOHE [10])
3 (3=41-60%): percentage damage caused to the plant, five-point scale, AMARE [1]

FC(F)(F)CCCn1nc(Br)c2cc(Br)cc(Oc3ncc(Cl)cn3)c21 [Compound 1.016]
2 (2=21-40%): percentage damage caused to the plant, five-point scale, ABUTH (ABUTH [2])
4 (4=61-80%): percentage damage caused to the plant, five-point scale, AMARE [1]
1 (1=0-20%): percentage damage caused to the plant, five-point scale, SETFA (Setaria faberi (SETFA) [3]) | percentage damage caused to the plant, five-point scale, ECHCG [4] | percentage damage caused to the plant, five-point scale, IPOHE (IPOHE [5]) | percentage damage caused to the plant, five-point scale, AMARE [6] | percentage damage caused to the plant, five-point scale, ABUTH (ABUTH [7]) | percentage damage caused to the plant, five-point scale, SETFA (Setaria faberi (SETFA) [8]) | percentage damage caused to the plant, five-point scale, ECHCG [9] | percentage damage caused to the plant, five-point scale, IPOHE (IPOHE [10])

FC(F)(F)CCCn1nc(Cl)c2cccc(Oc3ncc(Cl)cn3)c21 [Compound 1.005, 3-chloro-7-(5-chloropyrimidin-2-yl)oxy-1-(4,4,4-trifluorobutyl)indazole]
5 (5=81-100%): percentage damage caused to the plant, five-point scale, AMARE [1] | percentage damage caused to the plant, five-point scale, ABUTH (ABUTH [2]) | percentage damage caused to the plant, five-point scale, SETFA (Setaria faberi (SETFA) [3]) | percentage damage caused to the plant, five-point scale, ECHCG [4] | percentage damage caused to the plant, five-point scale, AMARE [6] | percentage damage caused to the plant, five-point scale, SETFA (Setaria faberi (SETFA) [8]) | percentage damage caused to the plant, five-point scale, ECHCG [9]
1 (1=0-20%): percentage damage caused to the plant, five-point scale, IPOHE (IPOHE [10])
3 (3=41-60%): percentage damage caused to the plant, five-point scale, IPOHE (IPOHE [5]) | percentage damage caused to the plant, five-point scale, ABUTH (ABUTH [7])
